# Results as given in US20080069896A1, “Antitumor Composition” (Kabushiki Kaisha Sangi, priority 2004, published 2008).
# Key:
# [1] = test system: HeLa; assay: MTT assay, human cancer cells HeLa; type: cell-based
# Experimental: (§1) Effect of platinum tetrachloride/hydroxyapatite (PtCl4/HAP) and hexachloroplatinate/hydroxyapatite (H2PtCl6/HAP) against human cancer cells (MTT assay)
# (§2) According to “in vitro toxicity test using MTT”, which is an ordinary test method, MTT assay was performed for PtCl4/HAP (particle diameter 0.1 μm or less), and H2PtCl6/HAP (particle diameter 0.1 μm or less) by using 19 types of human cancer cells. PtCl4/HAP and H2PtCl6/HAP were used by adjusting the final dispersion concentration to 1.0% in a dispersion liquid each containing 10% platinum as a theoretical value. For comparison, MTT assay was performed for PtCl4 and CDDP. PtCl4 was dissolved at an adequate dose, and then used after serial dilution with PBS (−). For CDDP, injection liquid from Malco was used.
# [2] = test system: SiHa; assay: MTT assay, human cancer cells SiHa; type: cell-based
# Experimental: as §1, §2
# [3] = test system: HT1080; assay: MTT assay, human cancer cells HT1080; type: cell-based
# Experimental: as §1, §2
# [4] = test system: A431; assay: MTT assay, human cancer cells A431; type: cell-based
# Experimental: as §1, §2
# [5] = test system: HSC3; assay: MTT assay, human cancer cells HSC3; type: cell-based
# Experimental: as §1, §2
# [6] = test system: HSC4; assay: MTT assay, human cancer cells HSC4; type: cell-based
# Experimental: as §1, §2
# [7] = test system: YES1; assay: MTT assay, human cancer cells YES1; type: cell-based
# Experimental: as §1, §2
# [8] = test system: YES2; assay: MTT assay, human cancer cells YES2; type: cell-based
# Experimental: as §1, §2
# [9] = test system: YES3; assay: MTT assay, human cancer cells YES3; type: cell-based
# Experimental: as §1, §2
# [10] = test system: YES4; assay: MTT assay, human cancer cells YES4; type: cell-based
# Experimental: as §1, §2
# [11] = test system: YES5; assay: MTT assay, human cancer cells YES5; type: cell-based
# Experimental: as §1, §2
# [12] = test system: YES6; assay: MTT assay, human cancer cells YES6; type: cell-based
# Experimental: as §1, §2
# [13] = test system: AZ521; assay: MTT assay, human cancer cells AZ521; type: cell-based
# Experimental: as §1, §2
# [14] = test system: Kato-III; assay: MTT assay, human cancer cells Kato-III; type: cell-based
# Experimental: as §1, §2
# [15] = test system: NUGC-4; assay: MTT assay, human cancer cells NUGC-4; type: cell-based
# Experimental: as §1, §2
# [16] = test system: SW837; assay: MTT assay, human cancer cells SW837; type: cell-based
# Experimental: as §1, §2
# [17] = test system: HepG2; assay: MTT assay, human cancer cells HepG2; type: cell-based
# Experimental: as §1, §2
# [18] = test system: human lung cancer cell Lu65; assay: MTT assay, human lung cancer cell Lu65; type: cell-based
# Experimental: as §1, §2
# [19] = test system: human lung cancer cell Lu99; assay: MTT assay, human lung cancer cell Lu99; type: cell-based
# Experimental: as §1, §2
# [20] = test system: fibroblasts during resting stage; assay: Toxicity test during resting stage (MTT assay); type: cell-based; conditions: rat fibroblasts, confluent, 48 hours
# Description: (§3) A male mature rat was deeply anesthetized with ether, and disinfected by wiping carefully its tail with alcohol. The tail end part was cut by several centimeters, and the skin was removed from coccyx. Tendon was attached to the coccyx, and by culturing the same, fibroblasts can be recovered. Coccyx part was further cut finely with a sterilized pair of scissors, and adhered on a sterilized plastic plate with the cut surface down. After resting the plate for a while, DMEM supplemented with 10% FBS was added thereto. In approximately one week, fibroblasts germinated from the coccyx part, and proliferated in the plate. The fibroblasts collected from rat tail end were used for the following experiment.
# Rat fibroblasts during proliferating stage were inoculated 2 times more than usual to a 96-well plate, that 100 μl of cell suspension at 2×10^4 cells/ml. Subsequently, it was cultured for 72 hours, in order to make cells in a confluent condition. After confirming with an inverted microscope that cells were in a complete confluent condition in each well, medium of each well was changed. Then, serially diluted test samples were added to the wells by aliquot of 10 μl, by the above-mentioned method. Culture was continued 48 hours after the addition, and subsequently, MTT assay was performed for PtCl4/HAP (particle diameter 0.1 μm or less), and H2PtCl6/HAP (particle diameter 0.1 μm or less), with similar procedures to those described in the above “toxicity test of PtCl4/HAP and H2PtCl6/HAP during proliferation stage”.
# [21] = test system: fibroblasts at confluency; assay: Microscopic observation of toxicity effect during resting stage; type: cell-based, rat; conditions: amount corresponding to 2 ppm of platinum content, fibroblasts at confluency, cultured for 48 hours
# Description: as §3
# From the result of Example 7, 2 ppm which is a value of platinum content that kills 50% of fibroblasts in CDDP during resting stage was set as a standard. Then, CDDP, PtCl4/HAP, PtCl4 and HAP dispersion liquids in an amount corresponding to 2 ppm of platinum content, were added to the fibroblasts at confluency in a medium, and cultured for 48 hours.
# [22] = IC50 converted to platinum concentration
# [23] = cervical cancer, HAP agents particle diameter 0.1 μm or less
smiles,measurement,setting,value
"[Cl][Pt]([Cl])([Cl])[Cl] [PtCl4, platinum tetrachloride]",Platinum content calculated from IC50 of human cancer cells by MTT assay,[1]; [22],4.0 ppm
same,IC50 of human cancer cells by MTT assay,[1]; [23],7.0 ppm
same,Platinum content calculated from IC50 of human cancer cells by MTT assay,[2]; [22],5.0 ppm
same,IC50 of human cancer cells by MTT assay,[2]; [23],8.7 ppm
same,IC50 of human cancer cells by MTT assay,"[3]; HT1080, fibrosarcoma, HAP agents particle diameter 0.1 μm or less",9.6 ppm
same,Platinum content calculated from IC50 of human cancer cells by MTT assay,"[3]; HT1080, IC50 converted to platinum concentration",5.6 ppm
same,IC50 of human cancer cells by MTT assay,"[4]; A431, squamous cell cancer, HAP agents particle diameter 0.1 μm or less",9.5 ppm
same,Platinum content calculated from IC50 of human cancer cells by MTT assay,"[4]; A431, IC50 converted to platinum concentration",5.5 ppm
same,IC50 of human cancer cells by MTT assay,"[5]; HSC3, oral cancer, HAP agents particle diameter 0.1 μm or less",9.6 ppm
same,Platinum content calculated from IC50 of human cancer cells by MTT assay,"[5]; HSC3, IC50 converted to platinum concentration",5.5 ppm
same,IC50 of human cancer cells by MTT assay,"[6]; HSC4, oral cancer, HAP agents particle diameter 0.1 μm or less",5.7 ppm
same,Platinum content calculated from IC50 of human cancer cells by MTT assay,"[6]; HSC4, IC50 converted to platinum concentration",3.3 ppm
same,IC50 of human cancer cells by MTT assay,"[7]; YES1, esophageal cancer, HAP agents particle diameter 0.1 μm or less",19.2 ppm
same,Platinum content calculated from IC50 of human cancer cells by MTT assay,"[7]; YES1, IC50 converted to platinum concentration",11.1 ppm
same,IC50 of human cancer cells by MTT assay,"[8]; YES2, esophageal cancer, HAP agents particle diameter 0.1 μm or less",35.8 ppm
same,Platinum content calculated from IC50 of human cancer cells by MTT assay,"[8]; YES2, IC50 converted to platinum concentration",20.7 ppm
same,IC50 of human cancer cells by MTT assay,"[9]; YES3, esophageal cancer, HAP agents particle diameter 0.1 μm or less",19.2 ppm
same,Platinum content calculated from IC50 of human cancer cells by MTT assay,"[9]; YES3, IC50 converted to platinum concentration",11.1 ppm
same,IC50 of human cancer cells by MTT assay,"[10]; YES4, esophageal cancer, HAP agents particle diameter 0.1 μm or less",14.6 ppm
same,Platinum content calculated from IC50 of human cancer cells by MTT assay,"[10]; YES4, IC50 converted to platinum concentration",8.5 ppm
same,IC50 of human cancer cells by MTT assay,"[11]; YES5, esophageal cancer, HAP agents particle diameter 0.1 μm or less",20.1 ppm
same,Platinum content calculated from IC50 of human cancer cells by MTT assay,"[11]; YES5, IC50 converted to platinum concentration",11.6 ppm
same,IC50 of human cancer cells by MTT assay,"[12]; YES6, esophageal cancer, HAP agents particle diameter 0.1 μm or less",11.9 ppm
same,Platinum content calculated from IC50 of human cancer cells by MTT assay,"[12]; YES6, IC50 converted to platinum concentration",6.9 ppm
same,IC50 of human cancer cells by MTT assay,"[13]; AZ521, gastric cancer, HAP agents particle diameter 0.1 μm or less",14.6 ppm
same,Platinum content calculated from IC50 of human cancer cells by MTT assay,"[13]; AZ521, IC50 converted to platinum concentration",8.4 ppm
same,Platinum content calculated from IC50 of human cancer cells by MTT assay,"[14]; KATO-III, IC50 converted to platinum concentration",3.4 ppm
same,IC50 of human cancer cells by MTT assay,"[14]; Kato-III, gastric cancer, HAP agents particle diameter 0.1 μm or less",5.8 ppm
same,IC50 of human cancer cells by MTT assay,"[15]; NUGC-4, gastric cancer, HAP agents particle diameter 0.1 μm or less",7.7 ppm
same,Platinum content calculated from IC50 of human cancer cells by MTT assay,"[15]; NUGC-4, IC50 converted to platinum concentration",4.5 ppm
same,IC50 of human cancer cells by MTT assay,"[16]; SW837, colon cancer, HAP agents particle diameter 0.1 μm or less",32.9 ppm
same,Platinum content calculated from IC50 of human cancer cells by MTT assay,"[16]; SW837, IC50 converted to platinum concentration",19.1 ppm
same,IC50 of human cancer cells by MTT assay,"[17]; HepG2, liver cancer, HAP agents particle diameter 0.1 μm or less",6.2 ppm
same,Platinum content calculated from IC50 of human cancer cells by MTT assay,"[17]; HepG2, IC50 converted to platinum concentration",6.2 ppm
same,IC50 of human cancer cells by MTT assay,"[18]; Lu65, lung cancer, HAP agents particle diameter 0.1 μm or less (Table 1)",0.9 ppm
same,Platinum content calculated from IC50 of human cancer cells by MTT assay,"[18]; Lu65, IC50 converted to platinum concentration (Table 2)",0.9 ppm
same,IC50 of human cancer cells by MTT assay,"[19]; Lu99, lung cancer, HAP agents particle diameter 0.1 μm or less (Table 1)",1.1 ppm
same,Platinum content calculated from IC50 of human cancer cells by MTT assay,"[19]; Lu99, IC50 converted to platinum concentration (Table 2)",1.1 ppm
same,"Net Pt: platinum content wherein IC50 is converted to platinum concentration, resting stage",[20],13.8 ppm
same,IC50 in the toxicity test during resting stage,[20]; HAP agents particle diameter 0.1 μm or less,23.8 ppm
same,Microscopic observation of cell form of cultured fibroblasts,[21],"many cells wherein spindle form was deformed, or having a round form, were observed"
